Test results published in article PMC9774438, “Effects of Synthetic Short Cationic Antimicrobial Peptides on the Catalytic Activity of Myeloperoxidase, Reducing Its Oxidative Capacity” (Antioxidants, 2022).
“Also recorded” adds a separate entry of the source. Where two headings read alike, the source gives them in different places.

How the values were obtained:
MPO active site = conditions: computational docking; ref [31]; cited from earlier work
Source text: To react with MPO, a peptide residue has to closely approach to the active site. The active site heme group of MPO is located in a crevice (~15 Å in depth) with a channel (~10 Å in diameter) which opens into the distal cavity. Only H2O2 and small anions have ready access to the iron atom. Other compounds that are oxidized by MPO via the peroxidase cycle bind in the binding site at the entrance to the distal cavity. […] Despite concerns rais ...

MPO = conditions: ref [31]; cited from earlier work
Source text: The positively charged character of arginine played a key role, since substitu ...

myeloperoxidase (MPO) [1] = biological target: T1, myeloperoxidase (MPO) (Homo sapiens, UniProt P05164); experiment: MPO peroxidase activity (Amplex Red assay); format: biochemical; conditions: 0.8–50 μM peptide, 8 nM MPO heme, 50 μM Amplex Red, 25 μM H2O2, 50 mM K-phosphate pH 7.4
T1 construct: Native myeloperoxidase (MPO) was obtained from human leukocyte extract by successive chromatography on heparin-Sepharose and phenyl-agarose; from tissue; host or cells: human leukocyte extract
Protocol: MPO peroxidase activity was evaluated fluorometrically using Amplex Red^TM reagent which was oxidized by MPO to the fluorescent resorufin (λex = 530 nm, λem = 590 nm). The assay was performed in 96-plate format. The final reaction mixture in 50 mM K-phosphate buffer (pH 7.4) was as follows: MPO, 8 nM heme; peptide, […]; H2O2, 25 μM; Amplex Red reagent, 50 μM. MPO was preincubated with peptides for 5 min in a volume of 100 μl. Then, Amplex Red was added, and the enzymatic reaction was initiated by adding H2O2 (a final probe volume of 200 μL per well). The fluorescence measurement was made with a CLARIOstar multimodal plate reader (BMG Labtech, Ortenberg, Germany) at 5 min after the beginning of the reaction. To determine the type of CAMP-induced inhibition, KM and Vmax were obtained by varying substrates of MPO: Amplex Red in a final concentration from 1 to 62.5 μM, or H2O2 in a final concentration from 0.625 to 20 μM.
(§1) The Hannes-Wolf plots were made as ([Substrate]/V = f([Substrate]). KM was equal in magnitude to the intercept made on the abscissa axis by the approximating straight line; Vmax was calculated as a reciprocal value of the straight-line slope. The inhibition constant (Ki) for noncompetitive inhibition was calculated as follows: Ki = [I]/((Vmax − Vmax’)/Vmax’); Ki for competitive inhibition was calculated as follows: Ki = [I]/((KM’ − KM)/KM); Ki for mixed inhibition was calculated as follows: Ki = [I]/(((KM’ − KM)/KM)^2 + ((Vmax − Vmax’)/Vmax’))^2)^0.5; and Ki for uncompetitive inhibition was calculated as follows: Ki = [I]/(((KM − KM’)/KM’)^2 + ((Vmax – Vmax’)/Vmax’))^2)^0.5, where [I]—concentration of inhibitor (CAMP), KM—Michaelis constant without inhibitor, Vmax—maximal rate without inhibitor, KM’—Michaelis constant in the presence of inhibitor, Vmax’—maximal rate in the presence of inhibitor.
From the experiments with varying concentrations of H2O2 (0.01–200 μM) and Amplex Red (6.25–100 μM), the optimal concentrations of 25 μM H2O2 and 50 μM Amplex Red were chosen for further work. The 0.8–50 μM concentration range (corresponding to 100–6250 peptide molecules per heme) was used to determine the concentration dependence of the effect of CAMPs on peroxidase activity of MPO.

myeloperoxidase (MPO) [2] = biological target: T1, myeloperoxidase (MPO); experiment: MPO chlorinating activity (Celestine Blue B assay); format: biochemical; conditions: 0.008–8 μM peptide, 0.8 nM MPO heme, 200 μM CB, 150 mM NaCl, 50 μM H2O2, 50 mM Na-acetate pH 5.5
Protocol: MPO chlorinating activity was evaluated fluorometrically using Celestine Blue B (CB) which was oxidized to fluorescent glycol (λex = 487 nm, λem = 578 nm) by taurine N-chloramine produced in the reaction of taurine with HOCl generated by MPO [39]. The assay was performed in 96-plate format. MPO was preincubated with peptides for 5 min in a volume of 100 μL, with the concentrations being: MPO, 1.6 nM heme and peptide, 16 nM–16 μM. Then, 100 μL aliquots of CB-containing mix (CB, 400 µM; H2O2, 100 µM; taurine, 4 mM; KI, 10 µM; NaCl, 300 mM; 50 mM Na-acetate buffer, pH 5.5) were added to MPO/peptide and to 100 μL of HOCl standards (0–150 μM). The fluorescence measurement was made with a CLARIOstar multimodal plate reader (BMG Labtech, Ortenberg, Germany) at 15 min after the reaction started. Fluorescence intensity detected for HOCl standards of HOCl was used for calculating the chlorinating activity as mole of HOCl per mole of MPO heme per second. To determine the type of CAMP-induced inhibition, KM and Vmax were obtained by varying substrates of MPO: NaCl in a final concentration from 25 to 300 mM, or H2O2 in a final concentration from 5 to 80 µM.
as §1
Chlorinating activity is a distinctive feature of MPO as compared with other peroxidases and it is an important property, enabling MPO to combat microbes. We tested whether the inhibitory effects of pept_1545 and Hm-AMP8 on peroxidase activity extend to MPO chlorinating activity. Chlorinating activity was measured using a fluorometric CB-based assay. To determine the concentration dependence of the effect of CAMPs on MPO chlorinating activity, the 0.008–8 μM concentration range (corresponding to 10–10,000 peptide molecules per heme) was used.

myeloperoxidase (MPO) [3] = biological target: T1, myeloperoxidase (MPO); experiment: MPO heme absorbance spectra (Compound II formation and decay, MPO turnover); format: biochemical; conditions: 2 μM MPO heme, 100 μM H2O2, 10 mM Na-phosphate pH 7.4; all concentrations
Protocol: Native myeloperoxidase (MPO) was obtained from human leukocyte extract by successive chromatography on heparin-Sepharose and phenyl-agarose followed by gel-filtration on a Sephacryl S-200 HR, as previously described. The Reinheit Zahl value (A430 nm/A280 nm) for the purified protein was 0.85. The MPO concentration was determined as the heme concentration measured spectrophotometrically at 430 nm with a molar extinction coefficient of 91,000 M^−1 cm^−1 [35].
Spectra of MPO were recorded on a Cary 50 Bio UV-Vis spectrophotometer (Varian, Mulgrave, Australia). Experiments were performed with Eppendorf UVette plastic UV/Vis cuvettes (Hamburg, Germany). An MPO concentration was 2 μM heme. MPO was mixed with CAMP in 10 mM Na-phosphate buffer (pH 7.4) supplemented with 0.2 mM DTPA. H2O2 was added as a microvolume of concentrated solution (100 μM final).
To elucidate the influence of CAMPs on MPO catalytic activity, we analyzed absorbance spectral changes for MPO activated by H2O2 in the presence of peptides. The spectra were obtained with 2 μM MPO heme and 100 μM H2O2 in 10 mM Na-phosphate buffer, pH 7.4. All reactions in these and further experiments were performed in buffers supplemented with 0.2 mM diethylenetriaminepentaacetic acid (DTPA) to sequester free transition metal ions to prevent tyrosine and cysteine autooxidation.
Figure 2 Time courses of spectral absorbance changes at 430 nm (indicative of MPO ground state) and 455 nm (indicative of Compound II) in the absence and presence of cationic antimicrobial peptides (CAMPs) in the system MPO/H2O2. The name of CAMP is given in parentheses after the panel designation (A–D). H2O2 (100 µM) was added to MPO (2 µM heme) or MPO preincubated with peptides at different peptide/heme molar ratios for 5 min in 10 mM Na-phosphate buffer, pH 7.4. Spectra were taken before and 0.25 min, 5 min, 10 min, and so on after adding H2O2. The initial absorbance values (before H2O2 addition) are shown as a red square marker. […]

erythrocytes = conditions: PBS, 1 h, 37 °C, Triton X-100 = 100%
Protocol: Comparative evaluation of hemolytic activity of the cationic antimicrobial peptides (CAMPs) Hm-
AMP8, pept_1545, Hm-AMP1, and Hm-AMP2 using a hemolysis assay measuring hemoglobin released from
damaged cells. In each group of bars, the final peptide concentration from left to right is 12.5 μM, 25 μM, 50
μM, and 100 μM. For melittin, the left bar – 0.5 μM, and the right bar – 1 μM. A working erythrocyte suspension
(in PBS) was prepared so that its ten -fold dilution gave an optical density of 0.4 at 800 nm (about 30 × 10^6 cells/mL).
Erythrocytes (125 μL) were added to the same volume of PBS containing the peptide. Cells with PBS served as
negative control; cells with Triton X-100 served as positive control wh ich was set to 100%. After 1-h incubation
(with slight shaking) at 37 °C, the samples were centrifuged at 1000 × g for 10 min , the supernatant was
transferred to the wells of a microplate, and the absorbance of hemoglobin was measured by a Multiskan Ascent
plate reader (Thermo Electron Corporation, Vantaa, Finland), with a test wavelength of 414 nm and a
background wavelength of 690 nm. The hemolysis percentage was calculated using the following equation:
Hemolysis (%) = {(sample absorbance – negative control) / (positive control – negative control)} × 100. Data
shown are mean ± SD from three independent experiments using blood from three healthy volunteers, with […]

T1 sequence (P05164 279-745 limits assumed): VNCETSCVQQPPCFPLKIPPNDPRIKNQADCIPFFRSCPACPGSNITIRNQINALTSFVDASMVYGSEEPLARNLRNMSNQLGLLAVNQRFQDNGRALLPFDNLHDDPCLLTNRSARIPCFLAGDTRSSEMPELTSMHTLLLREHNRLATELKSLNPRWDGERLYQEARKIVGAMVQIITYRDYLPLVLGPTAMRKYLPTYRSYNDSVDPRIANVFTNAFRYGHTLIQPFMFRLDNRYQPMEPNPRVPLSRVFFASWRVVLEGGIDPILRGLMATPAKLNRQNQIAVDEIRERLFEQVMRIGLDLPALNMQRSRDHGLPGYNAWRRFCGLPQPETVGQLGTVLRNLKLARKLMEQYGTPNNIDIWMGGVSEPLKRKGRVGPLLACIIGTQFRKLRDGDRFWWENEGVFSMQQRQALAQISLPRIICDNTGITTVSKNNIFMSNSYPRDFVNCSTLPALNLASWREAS
T1 sequence (P05164 165-273 limits assumed): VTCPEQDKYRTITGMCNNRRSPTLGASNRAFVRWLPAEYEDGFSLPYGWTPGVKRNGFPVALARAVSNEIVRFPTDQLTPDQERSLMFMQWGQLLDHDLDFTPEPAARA

GRRRRSVQWCA [antimicrobial peptide …, human lactoferrin-derived]
binding to MPO active site (docking) (MPO active site): binding of the peptide GRRRRSVQWCA to the edge of and within the cleft of the active site
inhibition of MPO (MPO): inhibiting MPO activity

RLKRFKRVALRREKTARNFRSIVS [Hm-AMP1]
effect on MPO peroxidase activity (myeloperoxidase (MPO) [1]): no inhibition; also recorded: No effect
effect on MPO chlorinating activity (myeloperoxidase (MPO) [2]): no significant effect
effect on H2O2-induced formation and decay of MPO Compound II / MPO turnover (summary) (myeloperoxidase (MPO) [3]): no significant effect on MPO cycling

melittin
Hemolysis (erythrocytes; 0.5 M (so in the source), three independent experiments): about 40%
Hemolysis (erythrocytes; 1 M (so in the source)): complete hemolysis
